pEC50, pIC50: −log10 of the molar value. Like-named read-outs stand apart in the source and are kept apart here.
What was measured:
OATP1B3 = test system: OATP1B3; parameters: method as in protocol Section 1.4.1.2; conditions: ref protocol Section 1.4.1.2; cited from earlier work
CYPs = test system: CYPs; parameters: method as in protocol Section 1.4.1.2; conditions: ref protocol Section 1.4.1.2; cited from earlier work
[1] = BMS-955176 40 mg SDD suspension and TDF at steady state; ref Study AI468005; cited from earlier work
[2] = test system: reverse transcriptase (RT), protease, and integrase inhibitor-resistant viruses; conditions: cited from earlier work
[3] = 10 mg/kg/day; ref protocol Section 1.4.1.2; cited from earlier work
[4] = test system: 23 isolates of subtype C viruses; parameters: method as in protocol Section 1.4.1.2; conditions: 23 subtype C isolates; ref protocol Section 1.4.1.2; read-out: EC50, median; cited from earlier work
93 subtype B viruses = test system: 93 subtype B viruses; parameters: method as in protocol Section 1.4.1.2; conditions: ref protocol Section 1.4.1.2, read-out: EC50, median; cited from earlier work
[5] = Intensive PK, non-compartmental analysis and dose proportionality; type: in vivo, HIV-1-infected adults
Experimental: Due to the EFV component of the blinded drug regimens, administration of study drug required both morning and evening dosing,12 hours apart. […] All bioanalytical analyses were conducted by PPD® Laboratories using validated high-performance liquid chromatography/mass spectroscopy assays. Intensive plasma GSK3532795 concentrations were analyzed by non-compartmental analysis using the actual sampling times in WinNonlin version 6.3.0 (Pharsight, St. Louis, Missouri, USA). […] To assess the dose proportionality of GSK3532795 when co-administered with TDF/FTC, a mixed-effect model with log-transformed dose as the fixed effect and each participant as the random effect was used to fit a power model in SAS version 9.1.3.

[6] = parameters: method as in protocol Section 1.4.1.2; conditions: ref protocol Section 1.4.1.2; cited from earlier work
[7] = test system: mouse P-glycoprotein (P-gp); conditions: higher bioavailability in P-gp knock-out mice / with elacridar; ref protocol Section 1.4.1.2; cited from earlier work
P-gp = test system: P-gp; parameters: method as in protocol Section 1.4.1.2; conditions: ref protocol Section 1.4.1.2; cited from earlier work
[8] = parameters: method as in Study AI468034; conditions: 120 mg MC tablet; ref Study AI468034; cited from earlier work
HIV-1 [9] = assay: Phase IIb study 205891: plasma HIV-1 RNA response at Week 24 (FDA snapshot, observed); type: in vivo, HIV-1-infected adults; conditions: Week 24, mITT; GSK3532795: range across 60, 120, 180 mg arms; EFV 600 mg; each + TDF/FTC
Experimental: The primary endpoint was determination of the proportion of participants with plasma HIV-1 RNA <40 copies/mL at Week 24 after treatment with GSK3532795 or efavirenz (EFV).
205891 was a Phase IIb, randomized, active-controlled, double-blind trial performed at 58 sites in 12 countries across South America, North America, South Africa, and Europe. Participants were randomized 1:1:1:1 to one of four treatment arms; GSK3532795 at doses of 60 mg, 120 mg or 180 mg once daily (QD), and one reference arm with EFV at a dose of 600 mg QD, each given in combination with TDF/FTC 300/200 mg QD.
Participants attended study visits at screening, on Day 1, and once every 4 weeks from Week 4 to Week 24 (telephonic visits were conducted at Week 20). Participants were expected to continue treatment, then, through Week 96, with visit intervals every 8–12 weeks. A post-dose safety follow-up visit was also conducted 12 weeks after treatment discontinuation. Plasma HIV-1 RNA levels were quantified by the Abbott RealTime HIV-1 assay.
The FDA-defined snapshot algorithm was used for primary endpoint efficacy assessment, using the last plasma HIV-1 RNA value in the pre-defined Week 24 visit window (± 6 weeks) to determine response. The modified intent-to-treat (mITT) population consisted of participants who received at least one dose of GSK3532795 or EFV. […]

HIV-1 [10] = assay: Protocol-defined virologic failure and drug resistance testing (GenoSure MG, PhenoSense); type: in vivo, HIV-1-infected adults; conditions: through Week 24
From the text: PDVF was defined as either: (1) confirmed HIV-1 RNA ≥40 copies/mL at any time after prior confirmed suppression to <40 copies/mL; or (2) a confirmed >1 log10 copies/mL above the nadir level. Genotypic information required for screening was generated using the GenoSure® MG assay; genotypic information and phenotypic observations during the treatment period were generated using the PhenoSense® combination resistance test.

[11] = cited from earlier work
[12] = Adverse events through Week 24; type: in vivo, HIV-1-infected adults
Experimental: Physical examinations, measurement of vital signs, and clinical laboratory evaluations were performed at Weeks 4, 8, 12, 16 and 24, and participants were closely monitored for AEs and SAEs throughout. AEs were classified according to MedDRA version 19.0. The severity and relationship to study drug was assessed by the local investigator.

CYP3A4 = test system: CYP3A4; parameters: method as in protocol Section 1.4.1.2; conditions: ref protocol Section 1.4.1.2; cited from earlier work
[13] = parameters: method as in Study AI468049; conditions: 180 mg MC tablet, preliminary, ref Study AI468049, cited from earlier work
[14] = cited from earlier work; remark: listed apart in the source
[15] = cited from earlier work; remark: listed apart in the source
[16] = test system: P gp, NTCP, OAT1, OAT3, MRP2, BSEP; parameters: method as in protocol Section 1.4.1.2; conditions: ref protocol Section 1.4.1.2; cited from earlier work
[17] = parameters: method as in protocol Section 1.4.1.2; conditions: 300 mg/kg/day (AUC 279 g·h/mL); ref protocol Section 1.4.1.2; cited from earlier work
[18] = cited from earlier work; remark: listed apart in the source
[19] = GSK3532795: range across 60, 120, 180 mg arms, EFV 600 mg
[20] = GSK3532795 arms pooled, EFV 600 mg, abstract
[21] = 30 mg/kg/day, ref protocol Section 1.4.1.2

C=C(C)[C@@H]1CC[C@]2(NCCN3CCS(=O)(=O)CC3)CC[C@]3(C)[C@H](CC[C@@H]4[C@@]5(C)CC=C(c6ccc(C(=O)O)cc6)C(C)(C)[C@@H]5CC[C@]43C)[C@@H]12 [GSK3532795]
pIC50 (OATP1B3): 5.40
Time-dependent inhibition of CYPs (CYPs): No
Impact of coadministration on exposures [1]: neither BMS-955176 nor TDF exposures were meaningfully impacted
Activity against RT, protease, and integrase inhibitor-resistant viruses ([2]; EC50 values similar to wild-type, ref protocol Section 1.4.1.2): retains complete activity
Activity against a panel of PI-resistant isolates from PI-treated subjects ([2]; major and minor PI-resistance determinants in protease and Gag): maintained activity
AUC at lowest dose with effects [3]: 71 gh/mL
pEC50 [4]: 8.25
pEC50 (93 subtype B viruses): 8.66
Increase in systemic exposure with dose ([5]; dose range 60–180 mg, with food and TDF/FTC): less than dose-proportional
Time at which median steady-state plasma concentrations reached peak ([5]; multiple doses 60, 120 or 180 mg with food and TDF/FTC): 4–5 hours post-dose
Phototoxicity, mutagenicity, clastogenicity in vitro [6]: not phototoxic, mutagenic, or clastogenic
P-gp substrate status [7]: substrate of mouse P-glycoprotein (P-gp)
P-gp inhibition (P-gp): No P-gp inhibition
Bioavailability lower relative to 80 mg SDD suspension [8]: approximately 23%
Impact of high fat meal on Cmax [8]: negligible impact
Increase in C24 with a high fat meal relative to fasted [8]: approximately 70%
Participants achieving HIV-1 RNA <40 copies/mL (HIV-1 [9]): 76–83%
Rate of protocol-defined virologic failure (PDVF) (HIV-1 [10]; 60 mg arm): 12% (6/50)
Rate of protocol-defined virologic failure (PDVF) (HIV-1 [10]; 120 mg arm): 10% (5/52)
Rate of protocol-defined virologic failure (PDVF) (HIV-1 [10]; 180 mg arm): 6% (3/51)
Safety in Phase 1 ([11]; SAD 10-120 mg, MAD 10-80 mg QD for 14-28 days, ref Study AI468001): No SAEs, deaths, or discontinuations related to study drug occurred
Half life (T-HALF) ([11]; healthy subjects, ref Study AI468001): approximately 35 hours
Increase in BMS-955176 AUC(TAU) ([11]; multiple dose with daily 400 mg ATV and a standard meal for 14 days, ref AI468001): ~ 25%
Time to steady state ([11]; multiple-dose once daily, ref Study AI468001): approximately 7 days
Increase in Cmax and AUC(INF) with dose ([11]; single dose 10-120 mg, multiple dose 10-80 mg QD, ref Study AI468001): slightly less than dose-proportional
Increase in BMS-955176 AUC(INF) ([11]; single dose following two doses of 100 mg RTV, ref AI468001): ~48%
Mean time to onset of first diarrhea event ([12]; 60 mg arm): 48.4 days
Mean time to onset of first diarrhea event ([12]; 120 mg arm): 19.9 days
Mean duration of first diarrhea event ([12]; 120 mg arm (longest)): 104.2 days
Mean time to onset of first diarrhea event ([12]; 180 mg arm): 11.3 days
SAE considered related to study drug ([12]; GSK3532795 120 mg (no action taken), EFV (led to discontinuation)): Grade 3 abdominal pain
Grade 1–4-related abdominal pain [12, 19]: 6–16%
Grade 1–4-related diarrhea [12, 19]: 27–51%
Adverse events leading to discontinuation [12, 20]: 5%
Serious adverse events [12, 20]: 5%
Frequency of Grade 1–4-related AEs ([12]; GSK3532795 arms pooled, EFV 600 mg, through Week 24): 53%
pIC50 (CYP3A4): 4.49
Increase in Cmax relative to fasted ([13]; all three meal types): approximately 2 fold
Increase in AUC relative to fasted ([13]; high fat meal): 2.5 fold
Increase in AUC relative to fasted ([13]; standard meal): 2.1 fold
AUC at developmental NOAEL [14, 21]: 114 gh/mL
Developmental NOAEL ([14]; rat, in vivo): 30 mg/kg/day
Developmental toxicity classification ([14]; rats, ref protocol Section 1.4.1.2): not a selective developmental toxicant
AUC at NOAEL [15, 21]: 1.135e+08 µg·h/mL
ALT activity not recovered, fold ([15]; 100 mg/kg/day, 1 male, end of 2-week recovery, ref protocol Section 1.4.1.2): 1.94 x
AUC at dose with dose-limiting toxicity ([15]; 100 mg/kg/day, ref protocol Section 1.4.1.2): 357 g·h/mL
Finding at high dose ([15]; 300 mg/kg/day, Days 8 to 9, ref protocol Section 1.4.1.2): early euthanasia of all the rats
NOAEL ([15]; rat, in vivo): 30 mg/kg/day
Inhibition of P gp, NTCP, OAT1, OAT3, MRP2, and BSEP [16]: not an inhibitor
Genotoxicity in rat micronucleus assay [17]: not genotoxic
Blood pressure and electrocardiogram ([18]; at 20 mg/kg, ref protocol Section 1.4.1.2): unaffected
No-observed-effect level (NOEL/NOAEL) for cardiovascular effects (heart rate) ([18]; dog, in vivo): 2 mg/kg

Reference: article PMC6198970, “Safety, efficacy, and dose response of the maturation inhibitor GSK3532795 (formerly known as BMS-955176) plus tenofovir/emtricitabine once daily in treatment-naive HIV-1-infected adults: Week 24 primary analysis from a randomized Phase IIb trial” (PLoS ONE, 2018)
